Reference: PubChem BioAssay (NCI)
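Values below derive from 48-hour exposures of cells grown in 96-well plates, with endpoints linearly interpolated between the two concentrations bracketing the appropriate inhibition level. At the TGI there is no net growth.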

Experiments:
Assay in all cases: inhibition of tumour cell growth, NCI panel, 48 h
786-0 renal = tested on: 786-0 renal
A498 renal = tested on: A498 renal
A549 NSCLC = tested on: A549 NSCLC
ACHN renal = tested on: ACHN renal
BT-549 breast = tested on: BT-549 breast
CAKI-1 renal = tested on: CAKI-1 renal
CCRF-CEM leukemia = tested on: CCRF-CEM leukemia
COLO 205 colon = tested on: COLO 205 colon
DU-145 prostate = tested on: DU-145 prostate
EKVX NSCLC = tested on: EKVX NSCLC
HCC-2998 colon = tested on: HCC-2998 colon
HCT-116 colon = tested on: HCT-116 colon
HCT-15 colon = tested on: HCT-15 colon
HL-60(TB) leukemia = tested on: HL-60(TB) leukemia
HOP-62 NSCLC = tested on: HOP-62 NSCLC
HOP-92 NSCLC = tested on: HOP-92 NSCLC
HS 578T breast = tested on: HS 578T breast
HT29 colon = tested on: HT29 colon
IGROV1 ovarian = tested on: IGROV1 ovarian
K-562 leukemia = tested on: K-562 leukemia
KM12 colon = tested on: KM12 colon
LOX IMVI melanoma = tested on: LOX IMVI melanoma
M14 melanoma = tested on: M14 melanoma
MALME-3M melanoma = tested on: MALME-3M melanoma
MDA-MB-231 breast = tested on: MDA-MB-231 breast
MDA-MB-435 = tested on: MDA-MB-435
MDA-N = tested on: MDA-N
MOLT-4 leukemia = tested on: MOLT-4 leukemia
NCI-H226 lung = tested on: NCI-H226 lung
NCI-H23 lung = tested on: NCI-H23 lung
NCI-H460 lung = tested on: NCI-H460 lung
NCI/ADR-RES ovarian = tested on: NCI/ADR-RES ovarian
OVCAR-3 ovarian = tested on: OVCAR-3 ovarian
OVCAR-4 ovarian = tested on: OVCAR-4 ovarian
OVCAR-5 ovarian = tested on: OVCAR-5 ovarian
OVCAR-8 ovarian = tested on: OVCAR-8 ovarian
PC-3 prostate = tested on: PC-3 prostate
SK-MEL-2 melanoma = tested on: SK-MEL-2 melanoma
SK-MEL-28 melanoma = tested on: SK-MEL-28 melanoma
SK-MEL-5 melanoma = tested on: SK-MEL-5 melanoma
SN12C renal = tested on: SN12C renal
SNB-19 CNS = tested on: SNB-19 CNS
SNB-75 CNS = tested on: SNB-75 CNS
SR leukemia = tested on: SR leukemia
SW-620 colon = tested on: SW-620 colon
T-47D breast = tested on: T-47D breast
TK-10 renal = tested on: TK-10 renal
U251 CNS = tested on: U251 CNS
UACC-257 melanoma = tested on: UACC-257 melanoma
UACC-62 melanoma = tested on: UACC-62 melanoma
UO-31 renal = tested on: UO-31 renal
RPMI-8226 leukemia = tested on: RPMI-8226 leukemia
RXF 393 renal = tested on: RXF 393 renal
SF-268 CNS = tested on: SF-268 CNS
SF-295 CNS = tested on: SF-295 CNS
SF-539 CNS = tested on: SF-539 CNS
SK-OV-3 ovarian = tested on: SK-OV-3 ovarian
NCI-H522 lung = tested on: NCI-H522 lung

In the case of `COc1ccc(CCCNC(=O)Cc2cc(OC)c(OC)cc2CO)cc1OC`, the TGI (786-0 renal) is reported as > 100 µM, the TGI (A498 renal) is reported as > 100 µM and the TGI (A549 NSCLC) is reported as > 100 µM. The TGI (ACHN renal) was > 100 µM, the TGI (BT-549 breast) was > 100 µM and the TGI (CAKI-1 renal) was > 100 µM. For the same molecule, the TGI (CCRF-CEM leukemia) was > 100 µM, the TGI (COLO 205 colon) was > 100 µM and the TGI (DU-145 prostate) was > 100 µM. The TGI (EKVX NSCLC) was > 100 µM, the TGI (HCC-2998 colon) was > 100 µM and the TGI (HCT-116 colon) was > 100 µM. For the same molecule, the TGI (HCT-15 colon) was > 100 µM, the TGI (HL-60(TB) leukemia) was > 100 µM and the TGI (HOP-62 NSCLC) was > 100 µM. For the same molecule, the TGI (HOP-92 NSCLC) was > 100 µM, the TGI (HS 578T breast) was > 100 µM and the TGI (HT29 colon) was > 100 µM. For the same molecule, the TGI (IGROV1 ovarian) was > 100 µM, the TGI (K-562 leukemia) was > 100 µM and the TGI (KM12 colon) was > 100 µM. The TGI (LOX IMVI melanoma) was > 100 µM, the TGI (M14 melanoma) was > 100 µM and the TGI (MALME-3M melanoma) was > 100 µM. For the same molecule, the TGI (MDA-MB-231 breast) was > 100 µM, the TGI (MDA-MB-435) was > 100 µM and the TGI (MDA-N) was > 100 µM. For the same molecule, the TGI (MOLT-4 leukemia) was > 100 µM, the TGI (NCI-H226 lung) was > 100 µM and the TGI (NCI-H23 lung) was > 100 µM. The TGI (NCI-H460 lung) was > 100 µM, the TGI (NCI/ADR-RES ovarian) was > 100 µM and the TGI (OVCAR-3 ovarian) was > 100 µM. The TGI (OVCAR-4 ovarian) was > 100 µM, the TGI (OVCAR-5 ovarian) was > 100 µM and the TGI (OVCAR-8 ovarian) was > 100 µM. For the same molecule, the TGI (PC-3 prostate) was > 100 µM, the TGI (SK-MEL-2 melanoma) was > 100 µM and the TGI (SK-MEL-28 melanoma) was > 100 µM. The TGI (SK-MEL-5 melanoma) was > 100 µM, the TGI (SN12C renal) was > 100 µM and the TGI (SNB-19 CNS) was > 100 µM. The TGI (SNB-75 CNS) was > 100 µM, the TGI (SR leukemia) was > 100 µM and the TGI (SW-620 colon) was > 100 µM. For the same molecule, the TGI (T-47D breast) was > 100 µM, the TGI (TK-10 renal) was > 100 µM and the TGI (U251 CNS) was > 100 µM. The TGI (UACC-257 melanoma) was > 100 µM, the TGI (UACC-62 melanoma) was > 100 µM and the TGI (UO-31 renal) was > 100 µM.
`Cc1nn(C(=O)c2ccccc2O)c2c1C(c1ccco1)SC(N)=N2` (configuration not stated) was tested, and the TGI (786-0 renal) was > 10 µM, the TGI (A498 renal) was > 10 µM and the TGI (A549 NSCLC) was > 10 µM. The TGI (ACHN renal) was > 10 µM, the TGI (BT-549 breast) was > 10 µM and the TGI (CAKI-1 renal) was > 10 µM. The TGI (CCRF-CEM leukemia) was > 10 µM, the TGI (COLO 205 colon) was > 10 µM and the TGI (DU-145 prostate) was > 10 µM. For the same molecule, the TGI (EKVX NSCLC) was > 10 µM, the TGI (HCT-116 colon) was > 10 µM and the TGI (HCT-15 colon) was > 10 µM. For the same molecule, the TGI (HL-60(TB) leukemia) was > 10 µM, the TGI (HOP-62 NSCLC) was 6.8 µM and the TGI (HOP-92 NSCLC) was > 10 µM. For the same molecule, the TGI (HS 578T breast) was > 10 µM, the TGI (HT29 colon) was > 10 µM and the TGI (IGROV1 ovarian) was > 10 µM. The TGI (K-562 leukemia) was > 10 µM, the TGI (KM12 colon) was > 10 µM and the TGI (LOX IMVI melanoma) was > 10 µM. The TGI (M14 melanoma) was > 10 µM, the TGI (MALME-3M melanoma) was > 10 µM and the TGI (MDA-MB-231 breast) was > 10 µM. For the same molecule, the TGI (MDA-MB-435) was > 10 µM, the TGI (MDA-N) was > 10 µM and the TGI (MOLT-4 leukemia) was > 10 µM. For the same molecule, the TGI (NCI-H226 lung) was > 10 µM, the TGI (NCI-H23 lung) was > 10 µM and the TGI (NCI-H460 lung) was > 10 µM. For the same molecule, the TGI (NCI/ADR-RES ovarian) was 8.16 µM, the TGI (OVCAR-3 ovarian) was > 10 µM and the TGI (OVCAR-4 ovarian) was > 10 µM. The TGI (OVCAR-5 ovarian) was > 10 µM, the TGI (OVCAR-8 ovarian) was > 10 µM and the TGI (PC-3 prostate) was > 10 µM. The TGI (RPMI-8226 leukemia) was > 10 µM, the TGI (RXF 393 renal) was > 10 µM and the TGI (SF-268 CNS) was > 10 µM. The TGI (SF-295 CNS) was > 10 µM, the TGI (SF-539 CNS) was > 10 µM and the TGI (SK-MEL-2 melanoma) was > 10 µM. The TGI (SK-MEL-28 melanoma) was > 10 µM, the TGI (SK-OV-3 ovarian) was > 10 µM and the TGI (SN12C renal) was > 10 µM. The TGI (SNB-19 CNS) was > 10 µM, the TGI (SNB-75 CNS) was > 10 µM and the TGI (SR leukemia) was > 10 µM. For the same molecule, the TGI (SW-620 colon) was > 10 µM, the TGI (T-47D breast) was > 10 µM and the TGI (TK-10 renal) was > 10 µM. For the same molecule, the TGI (U251 CNS) was > 10 µM, the TGI (UACC-257 melanoma) was > 10 µM and the TGI (UACC-62 melanoma) was 6 µM. The TGI (UO-31 renal) was > 10 µM.
`[N-]=[N+]=Nc1c(N2CCOCC2)c(Cl)nc2ccccc12` was tested, and the TGI (786-0 renal) was > 100 µM, the TGI (A498 renal) was > 100 µM and the TGI (A549 NSCLC) was > 100 µM. The TGI (ACHN renal) was > 100 µM, the TGI (BT-549 breast) was > 100 µM and the TGI (CAKI-1 renal) was > 100 µM. For the same molecule, the TGI (CCRF-CEM leukemia) was > 100 µM, the TGI (COLO 205 colon) was > 100 µM and the TGI (EKVX NSCLC) was > 100 µM. The TGI (HCC-2998 colon) was > 100 µM, the TGI (HCT-116 colon) was > 100 µM and the TGI (HCT-15 colon) was > 100 µM. For the same molecule, the TGI (HL-60(TB) leukemia) was > 100 µM, the TGI (HOP-62 NSCLC) was > 100 µM and the TGI (HOP-92 NSCLC) was > 100 µM. For the same molecule, the TGI (HS 578T breast) was > 100 µM, the TGI (HT29 colon) was 72.9 µM and the TGI (IGROV1 ovarian) was > 100 µM. For the same molecule, the TGI (K-562 leukemia) was > 100 µM, the TGI (KM12 colon) was 88.6 µM and the TGI (LOX IMVI melanoma) was > 100 µM. For the same molecule, the TGI (M14 melanoma) was > 100 µM, the TGI (MALME-3M melanoma) was > 100 µM and the TGI (MDA-MB-231 breast) was > 100 µM. For the same molecule, the TGI (MDA-MB-435) was > 100 µM, the TGI (MDA-N) was > 100 µM and the TGI (MOLT-4 leukemia) was > 100 µM. The TGI (NCI-H226 lung) was > 100 µM, the TGI (NCI-H23 lung) was > 100 µM and the TGI (NCI-H460 lung) was > 100 µM. The TGI (NCI-H522 lung) was > 100 µM, the TGI (NCI/ADR-RES ovarian) was > 100 µM and the TGI (OVCAR-3 ovarian) was > 100 µM. The TGI (OVCAR-4 ovarian) was > 100 µM, the TGI (OVCAR-5 ovarian) was > 100 µM and the TGI (OVCAR-8 ovarian) was > 100 µM. The TGI (PC-3 prostate) was > 100 µM, the TGI (RPMI-8226 leukemia) was > 100 µM and the TGI (RXF 393 renal) was > 100 µM. The TGI (SF-268 CNS) was > 100 µM, the TGI (SF-295 CNS) was > 100 µM and the TGI (SF-539 CNS) was > 100 µM. The TGI (SK-MEL-2 melanoma) was > 100 µM, the TGI (SK-MEL-28 melanoma) was > 100 µM and the TGI (SK-MEL-5 melanoma) was 49.6 µM. For the same molecule, the TGI (SK-OV-3 ovarian) was > 100 µM, the TGI (SN12C renal) was > 100 µM and the TGI (SNB-19 CNS) was > 100 µM. The TGI (SNB-75 CNS) was > 100 µM, the TGI (SR leukemia) was > 100 µM and the TGI (SW-620 colon) was > 100 µM. For the same molecule, the TGI (T-47D breast) was > 100 µM, the TGI (TK-10 renal) was > 100 µM and the TGI (U251 CNS) was > 100 µM. The TGI (UACC-257 melanoma) was 78.3 µM and the TGI (UO-31 renal) was > 100 µM.
